Experimental data reported in PubChem BioAssay AID2060496 (Molecular Pharmacology Branch, DTP, NCI, 2025).

Tested on: 276233-004-R-J1-PDC complex spheroid viability
Assay: Anticancer human tumor 276233-004-R-J1-PDC patient-derived colon adenocarcinoma cell line growth inhibition [GQUAD]
Details: for IC50: curve of first compound; for viability, T/C: stronger effect = lower value
How it was run: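 Tumor cells were grown as complex spheroids with HUVEC endothelial cells and mesenchymal stem cells as stroma. G-quadruplex stabilizers were combined with targeted agents over half-log dilutions from near the clinical Cmax, or from 10 microM.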

[1] = second compound 0.0316 µM, first compound 0.0316 µM
[2] = second compound 0.0316 µM, first compound 0.316 µM
[3] = second compound 0.1 µM, first compound 0.0316 µM
[4] = second compound 0.1 µM, first compound 0.316 µM
[5] = second compound 0.316 µM, first compound 0.0316 µM
[6] = second compound 0.316 µM, first compound 0.316 µM
[7] = second compound 1 µM, first compound 0.0316 µM
[8] = second compound 1 µM, first compound 0.316 µM
[9] = second compound 3.16 µM, first compound 0.0316 µM
[10] = second compound 3.16 µM, first compound 0.316 µM
[11] = second compound 10 µM, first compound 0.0316 µM
[12] = second compound 10 µM, first compound 0.316 µM
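Also: spheroids exposed to drugs for seven days.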
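For viability, T/C in this document: 100% = DMSO vehicle control viability.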

**Q.** Which IC50 (second compound 0.0316 µM) does the source give for `COc1ccc([C@@H](O)c2cc(-c3ncnc4cc(N5CCOCC5)ccc34)c(F)cc2Cl)nn1` + Cc1[nH]c2ccc(F)cc2c1-c1nc2c3cccnc3c3ncccc3c2[nH]1 here?
**A.** > 10000 nM

**Q.** And the IC50 (second compound 0.1 µM)?
**A.** > 10000 nM

**Q.** What about the IC50 (second compound 0.316 µM) of the same compound?
**A.** > 10000 nM

**Q.** And the IC50 (second compound 1 µM)?
**A.** 5020 nM

**Q.** What about the IC50 (second compound 3.16 µM) of the same compound?
**A.** 424 nM

**Q.** What about the IC50 (second compound 10 µM) of the same compound?
**A.** 352 nM

**Q.** And the viability, T/C [1]?
**A.** 89.6%

**Q.** And the viability, T/C (second compound 0.0316 µM, first compound 0.1 µM)?
**A.** 77.9%

**Q.** And the viability, T/C [2]?
**A.** 97.2%

**Q.** And the viability, T/C (second compound 0.0316 µM, first compound 1 µM)?
**A.** 72.6%

**Q.** What about the viability, T/C (second compound 0.0316 µM, first compound 3.16 µM) of the same compound?
**A.** 72.6%

**Q.** What about the viability, T/C (second compound 0.0316 µM, first compound 10 µM) of the same compound?
**A.** 68.7%

**Q.** And the viability, T/C [3]?
**A.** 88.3%

**Q.** And the viability, T/C (second compound 0.1 µM, first compound 0.1 µM)?
**A.** 79.6%

**Q.** And the viability, T/C [4]?
**A.** 70.5%

**Q.** What about the viability, T/C (second compound 0.1 µM, first compound 1 µM) of the same compound?
**A.** 74%

**Q.** What about the viability, T/C (second compound 0.1 µM, first compound 3.16 µM) of the same compound?
**A.** 72.7%

**Q.** What about the viability, T/C (second compound 0.1 µM, first compound 10 µM) of the same compound?
**A.** 65.7%

**Q.** What about the viability, T/C [5] of the same compound?
**A.** 87.8%

**Q.** And the viability, T/C (second compound 0.316 µM, first compound 0.1 µM)?
**A.** 79.4%

**Q.** What about the viability, T/C [6] of the same compound?
**A.** 96%

**Q.** And the viability, T/C (second compound 0.316 µM, first compound 1 µM)?
**A.** 80.9%

**Q.** What about the viability, T/C (second compound 0.316 µM, first compound 3.16 µM) of the same compound?
**A.** 70.9%

**Q.** And the viability, T/C (second compound 0.316 µM, first compound 10 µM)?
**A.** 61.2%

**Q.** What about the viability, T/C [7] of the same compound?
**A.** 61.1%

**Q.** What about the viability, T/C (second compound 1 µM, first compound 0.1 µM) of the same compound?
**A.** 70.1%

**Q.** What about the viability, T/C [8] of the same compound?
**A.** 67%

**Q.** And the viability, T/C (second compound 1 µM, first compound 1 µM)?
**A.** 62.2%

**Q.** What about the viability, T/C (second compound 1 µM, first compound 3.16 µM) of the same compound?
**A.** 50.4%

**Q.** What about the viability, T/C (second compound 1 µM, first compound 10 µM) of the same compound?
**A.** 44.5%

**Q.** And the viability, T/C [9]?
**A.** 59%

**Q.** What about the viability, T/C (second compound 3.16 µM, first compound 0.1 µM) of the same compound?
**A.** 51.7%

**Q.** What about the viability, T/C [10] of the same compound?
**A.** 51.1%

**Q.** And the viability, T/C (second compound 3.16 µM, first compound 1 µM)?
**A.** 49.1%

**Q.** What about the viability, T/C (second compound 3.16 µM, first compound 3.16 µM) of the same compound?
**A.** 33.3%

**Q.** What about the viability, T/C (second compound 3.16 µM, first compound 10 µM) of the same compound?
**A.** 24.1%

**Q.** What about the viability, T/C [11] of the same compound?
**A.** 53.4%

**Q.** What about the viability, T/C (second compound 10 µM, first compound 0.1 µM) of the same compound?
**A.** 48%

**Q.** What about the viability, T/C [12] of the same compound?
**A.** 53%

**Q.** What about the viability, T/C (second compound 10 µM, first compound 1 µM) of the same compound?
**A.** 41.5%

**Q.** What about the viability, T/C (second compound 10 µM, first compound 3.16 µM) of the same compound?
**A.** 29%

**Q.** What about the viability, T/C (second compound 10 µM, first compound 10 µM) of the same compound?
**A.** 25.6%

**Q.** What does the source list for `CC[C@@]1(O)C(=O)OCc2c1cc1n(c2=O)Cc2cc3c(CN(C)C)c(O)ccc3nc2-1` + CN(C)c1ccc(Nc2c3ccc(NC(=O)CCN4CCCC4)cc3nc3cc(NC(=O)CCN4CCCC4)ccc23)cc1?
**A.** IC50 (second compound 0.0316 µM): > 316 nM; IC50 (second compound 0.1 µM): > 316 nM; IC50 (second compound 0.316 µM): > 316 nM; IC50 (second compound 1 µM): > 316 nM; IC50 (second compound 3.16 µM): 93 nM; IC50 (second compound 10 µM): 88.1 nM; viability, T/C (second compound 0.0316 µM, first compound 0.000999 µM): 89.7%; viability, T/C (second compound 0.0316 µM, first compound 0.00316 µM): 110%; viability, T/C (second compound 0.0316 µM, first compound 0.00999 µM): 91.8%; viability, T/C [1]: 103%; viability, T/C (second compound 0.0316 µM, first compound 0.0999 µM): 95.5%; viability, T/C [2]: 91.2%; viability, T/C (second compound 0.1 µM, first compound 0.000999 µM): 84.2%; viability, T/C (second compound 0.1 µM, first compound 0.00316 µM): 87.7%; viability, T/C (second compound 0.1 µM, first compound 0.00999 µM): 84.9%; viability, T/C [3]: 112%; viability, T/C (second compound 0.1 µM, first compound 0.0999 µM): 86.1%; viability, T/C [4]: 85.4%; viability, T/C (second compound 0.316 µM, first compound 0.000999 µM): 68.2%; viability, T/C (second compound 0.316 µM, first compound 0.00316 µM): 84.2%; viability, T/C (second compound 0.316 µM, first compound 0.00999 µM): 66.5%; viability, T/C [5]: 58.5%; viability, T/C (second compound 0.316 µM, first compound 0.0999 µM): 64.8%; viability, T/C [6]: 82%; viability, T/C (second compound 1 µM, first compound 0.000999 µM): 62.6%; viability, T/C (second compound 1 µM, first compound 0.00316 µM): 56.4%; viability, T/C (second compound 1 µM, first compound 0.00999 µM): 66.7%; viability, T/C [7]: 51.6%; viability, T/C (second compound 1 µM, first compound 0.0999 µM): 77.5%; viability, T/C [8]: 57.5%; viability, T/C (second compound 3.16 µM, first compound 0.000999 µM): 64.1%; viability, T/C (second compound 3.16 µM, first compound 0.00316 µM): 61.3%; viability, T/C (second compound 3.16 µM, first compound 0.00999 µM): 56.2%; viability, T/C [9]: 50%; viability, T/C (second compound 3.16 µM, first compound 0.0999 µM): 52.5%; viability, T/C [10]: 46.8%; viability, T/C (second compound 10 µM, first compound 0.000999 µM): 58%; viability, T/C (second compound 10 µM, first compound 0.00316 µM): 58.5%; viability, T/C (second compound 10 µM, first compound 0.00999 µM): 46.7%; viability, T/C [11]: 66.1%; viability, T/C (second compound 10 µM, first compound 0.0999 µM): 43.8%; viability, T/C [12]: 39.8%
